The record followed here is ChEMBL document CHEMBL1151606, “Relationship of structure of bridged (2,6-dimethyl-4-pyridinyl)quinolones to mammalian topoisomerase II inhibition” (Bioorg Med Chem Lett, 1993).

Each structure is given as a SMILES string. A value given as a limit tells only on which side of the number the result lay.

For the first experiment, the target named is DNA topoisomerase II (Homo sapiens, UniProt P11388+Q02880). The experiment in a line: Tested for inhibitory activity against Topoisomerase II isolated from HeLa cells by using SDS-K+ precipitation method. Format: cell-based.
Details: not given
By EC50 is commonly meant the midpoint of the concentration-response curve. For the compound `Cc1cc(-c2c(F)cc3c(=O)c(C(=O)O)cn4c3c2OCC[C@@H]4C)cc(C)n1`, the EC50 was 150 µM. `C[C@H]1COc2c(-c3ccncc3)c(F)cc3c(=O)c(C(=O)O)cn1c23` returned an EC50 of 57 µM. `Cc1cc(-c2c(F)cc3c(=O)c(C(=O)O)cn4c3c2OC[C@@H]4C)cc(C)n1` showed an EC50 of 31 µM.

For `Cc1cc(-c2c(F)cc3c(=O)c(C(=O)O)cn4c3c2SC[C@@H]4C)cc(C)n1`, the concentration for a half-maximal effect (EC50) stood at 9.4 µM.

`Cc1cc(-c2c(F)cc3c(=O)c(C(=O)O)cn4c3c2NC[C@@H]4C)cc(C)n1` showed an EC50 of 730 µM. Same read-out and setting: in the case of `Cc1cc(-c2c(F)cc3c(=O)c(C(=O)O)cn4c3c2OCC42CC2)cc(C)n1` it was greater than 130 µM; in that of `Cc1cc(-c2c(F)cc3c(=O)c(C(=O)O)cn4c3c2OCC4(C)C)cc(C)n1`, 510 µM; in that of `Cc1cc(-c2c(F)c(F)c3c(=O)c(C(=O)O)cn4c3c2OC[C@@H]4C)cc(C)n1`, 50 µM.

The compound `CCn1cc(C(=O)O)c(=O)c2cc(F)c(-c3cc(C)nc(C)c3)cc21` displayed an EC50 greater than 570 µM.

`C[C@H]1COc2c(-c3ccc4cnccc4c3)c(F)cc3c(=O)c(C(=O)O)cn1c23`: the EC50 is 58 µM. Still for that read-out and setting: under `Cc1cc(-c2c(F)cc3c(=O)c(C(=O)O)cn4c3c2[S+]([O-])C[C@@H]4C)cc(C)n1` (stereo partly drawn) stands 62 µM; under `CC[C@H]1COc2c(-c3cc(C)nc(C)c3)c(F)cc3c(=O)c(C(=O)O)cn1c23`, 420 µM; under `Cc1cc(-c2c(F)cc3c(=O)c(C(=O)O)cn4c3c2SC[C@H]4C)cc(C)n1`, greater than 260 µM.

On to `Cc1cc(-c2ccc3c(=O)c(C(=O)O)cn4c3c2OC[C@@H]4C)cc(C)n1`, for which the EC50 was greater than 290 µM. Compound `Cc1cc(-c2c(F)cc3c(=O)c(C(=O)O)cn4c3c2OC[C@H]4C)cc(C)n1` yielded an EC50 greater than 540 µM. On to `Cc1cc(-c2c(F)cc3c(=O)c(C(=O)O)cn4c3c2OCC4)cc(C)n1.Cl`, for which the EC50 is greater than 560 µM.

A further experiment relates to Mus musculus. Put plainly: Tested for the increased life span (ILS) in murine leukemia model (in which P388 administered intraperitoneally), at a concentration of 180 mg/kg. The settings on record: P388, ip, route intraperitoneal. Format: functional.
The ILS is how much longer treated animals lived than controls. Take `COc1cc([C@@H]2c3cc4c(cc3C(O[C@@H]3O[C@@H]5CO[C@@H](C)O[C@H]5[C@H](O)[C@H]3O)C3COC(=O)[C@@H]32)OCO4)cc(OC)c1O` (single isomer, unassigned) [ETOPOSIDE]: the ILS at 180 mg/kg was determined as 220%.

Another experiment deals with Mus musculus. Put plainly: Tested for the increased life span (ILS) in murine leukemia model (in which P388 administered intraperitoneally), at a concentration of 1014 mg/kg. The settings on record: P388, ip, route intraperitoneal. Format: functional.
Take `Cc1cc(-c2c(F)cc3c(=O)c(C(=O)O)cn4c3c2SC[C@@H]4C)cc(C)n1`: the ILS at 1014 mg/kg was found to be 90%.
